Measured values as given in ChEMBL document CHEMBL6071135, “New resorcylic acid derivatives of Lysimachia tengyuehensis against MRSA and VRE by interfering with bacterial metabolic imbalance” (Eur J Med Chem, 2024).
Values after ≈ are worked out from the molar mass of the structure shown. Active and inactive are the calls of the source. The rule behind the calls is not given here.

Experiments:
[1] = test system: Staphylococcus aureus; assay: Induction of morphological changes in methicillin-resistant Staphylococcus aureus assessed as appearance of flocculated bacterial surface at 4 times MIC measured for 5 hrs by field emission scanning electron microscopy based analysis; type: functional, organism-based
[2] = test system: Staphylococcus aureus; assay: Antibacterial activity against methicillin-resistant Staphylococcus aureus measured after 24 hrs by CLSI based broth microdilution method; type: functional
[3] = test system: Enterococcus faecalis; assay: Antimicrobial activity against vancomycin-resistant Enterococcus faecalis ATCC51299 assessed as reduction in bacterial growth in presence of phosphatidylethanolamine by checkerboard broth dilution method; type: functional, organism-based
[4] = test system: Staphylococcus aureus; assay: Antimicrobial activity against methicillin-resistant Staphylococcus aureus assessed as reduction in bacterial growth in presence of phosphatidylethanolamine by checkerboard broth dilution method; type: functional, organism-based
[5] = test system: RAW264.7; assay: Cytotoxicity against mouse RAW264.7 cells at 16 ug/ml incubated for 24 hrs by MTT assay; type: toxicity, cell-based; conditions: raw264.7, 24 h, dose 16 µg/ml
[6] = test system: Enterococcus faecalis; assay: Induction of morphological changes in vancomycin-resistant Enterococcus faecalis ATCC51299 assessed as appearance of clustered bacterial surface at 4 times MIC measured for 5 hrs by field emission scanning electron microscopy based analysis; type: functional, organism-based
[7] = test system: Staphylococcus aureus; assay: Bactericidal activity against methicillin-resistant Staphylococcus aureus measured after 24 hrs by CLSI based broth microdilution method; type: functional
[8] = test system: Enterococcus faecalis; assay: Bactericidal activity against vancomycin-resistant Enterococcus faecalis ATCC51299 assessed as reduction in number of bacteria at 1 time MIC measured within 40 mins by time-kill assay; type: functional, organism-based
[9] = test system: Enterococcus faecalis; assay: Induction of morphological changes in biofilm of vancomycin-resistant Enterococcus faecalis ATCC51299 assessed as appearance of destroyed biofilm at 1 to 4 times MIC incubated for 24 hrs by DAPI staining based fluorescence microscopy analysis; type: functional, organism-based
[10] = test system: Enterococcus faecalis; assay: Induction of morphological changes in vancomycin-resistant Enterococcus faecalis ATCC51299 assessed as appearance of flocculated bacterial surface at 4 times MIC measured for 5 hrs by field emission scanning electron microscopy based analysis; type: functional, organism-based
[11] = test system: Enterococcus faecalis; assay: Antibacterial activity against vancomycin-resistant Enterococcus faecalis ATCC51299 measured after 20 passages by broth microdilution method; type: functional, organism-based
[12] = test system: Cell membrane; assay: Induction of cell membrane depolarization in methicillin-resistant Staphylococcus aureus assessed as reduction in fluorescence intensity measured for 30 mins by DiSC3(5) dye-based fluorescence assay; type: subcellular
[13] = test system: Enterococcus faecalis; assay: Antimicrobial activity against vancomycin-resistant Enterococcus faecalis ATCC51299 assessed as reduction in bacterial growth in presence of peptidoglycan by checkerboard broth dilution method; type: functional, organism-based
[14] = test system: Staphylococcus aureus; assay: Bactericidal activity against methicillin-resistant Staphylococcus aureus assessed as reduction in number of bacteria at 2 times MIC measured within 15 mins by time-kill assay; type: functional, organism-based
[15] = test system: Cell membrane; assay: Induction of cell membrane damage in vancomycin-resistant Enterococcus faecalis ATCC51299 assessed as increase in ROS accumulation at 4 times MIC incubated for 1 hr by fluorescence based analysis; type: subcellular
[16] = test system: Staphylococcus aureus; assay: Antimicrobial activity against methicillin-resistant Staphylococcus aureus assessed as reduction in bacterial growth in presence of phosphatidylglycerol by checkerboard broth dilution method; type: functional, organism-based
[17] = test system: Enterococcus faecalis; assay: Induction of morphological changes in vancomycin-resistant Enterococcus faecalis ATCC51299 assessed as appearance of ruptured bacterial surface at 4 times MIC measured for 5 hrs by field emission scanning electron microscopy based analysis; type: functional, organism-based
[18] = test system: Enterococcus faecalis; assay: Antibacterial activity against vancomycin-resistant Enterococcus faecalis ATCC51299 measured after 24 hrs by CLSI based broth microdilution method; type: functional
[19] = test system: Staphylococcus aureus; assay: Induction of morphological changes in methicillin-resistant Staphylococcus aureus assessed as appearance of clustered bacterial surface at 4 times MIC measured for 5 hrs by field emission scanning electron microscopy based analysis; type: functional, organism-based
[20] = test system: Staphylococcus aureus; assay: Antimicrobial activity against methicillin-resistant Staphylococcus aureus assessed as reduction in bacterial growth in presence of peptidoglycan by checkerboard broth dilution method; type: functional, organism-based
[21] = test system: Staphylococcus aureus; assay: Induction of morphological changes in methicillin-resistant Staphylococcus aureus assessed as appearance of ruptured bacterial surface at 4 times MIC measured for 5 hrs by field emission scanning electron microscopy based analysis; type: functional, organism-based
[22] = test system: Staphylococcus aureus; assay: Antibacterial activity against methicillin-resistant Staphylococcus aureus at sub-MIC concentration measured after 24 hrs by CLSI based broth microdilution method; type: functional, organism-based
[23] = test system: Staphylococcus aureus; assay: Bactericidal activity against methicillin-resistant Staphylococcus aureus assessed as reduction in number of bacteria at 1 time MIC measured within 40 mins by time-kill assay; type: functional, organism-based
[24] = test system: Enterococcus faecalis; assay: Induction of morphological changes in biofilm of vancomycin-resistant Enterococcus faecalis ATCC51299 assessed as decrease in biofilm density at 1 to 4 times MIC incubated for 24 hrs by DAPI staining based fluorescence microscopy analysis; type: functional, organism-based
[25] = test system: Staphylococcus aureus; assay: Induction of morphological changes in biofilm of methicillin-resistant Staphylococcus aureus assessed as decrease in biofilm density at 1 to 4 times MIC incubated for 24 hrs by DAPI staining based fluorescence microscopy analysis; type: functional, organism-based
[26] = test system: Staphylococcus aureus; assay: Antibiofilm activity in methicillin-resistant Staphylococcus aureus assessed as increase in biofilm destruction incubated for 24 hrs by crystal violet staining based analysis; type: functional, organism-based
[27] = test system: Enterococcus faecalis; assay: Bactericidal activity against vancomycin-resistant Enterococcus faecalis ATCC51299 measured after 24 hrs by CLSI based broth microdilution method; type: functional
[28] = test system: Enterococcus faecalis; assay: Antibacterial activity against vancomycin-resistant Enterococcus faecalis ATCC51299 at sub-MIC concentration measured after 24 hrs by CLSI based broth microdilution method; type: functional, organism-based
[29] = test system: Staphylococcus aureus; assay: Induction of morphological changes in biofilm of methicillin-resistant Staphylococcus aureus assessed as appearance of destroyed biofilm at 1 to 4 times MIC incubated for 24 hrs by DAPI staining based fluorescence microscopy analysis; type: functional, organism-based
[30] = test system: Enterococcus faecalis; assay: Antibiofilm activity in vancomycin-resistant Enterococcus faecalis ATCC51299 assessed as increase in biofilm destruction incubated for 24 hrs by crystal violet staining based analysis; type: functional, organism-based
[31] = test system: Staphylococcus aureus; assay: Induction of morphological changes in methicillin-resistant Staphylococcus aureus assessed as appearance of died bacterial surface at 4 times MIC measured for 5 hrs by field emission scanning electron microscopy based analysis; type: functional, organism-based
[32] = test system: Staphylococcus aureus; assay: Antimicrobial activity against methicillin-resistant Staphylococcus aureus assessed as increase in cell membrane fluidity at upto 4 times MIC incubated for 35 mins by Laurdan-GP dye based spectramax gemini XPS microplate reader analysis; type: functional, organism-based
[33] = test system: Cell membrane; assay: Induction of cell membrane damage in methicillin-resistant Staphylococcus aureus assessed as increase in ROS accumulation at 4 times MIC incubated for 1 hr by fluorescence based analysis; type: subcellular
[34] = test system: Cell membrane; assay: Induction of cell membrane damage in vancomycin-resistant Enterococcus faecalis ATCC51299 assessed as increase in nucleic acid leakage at 4 times MIC incubated for 2 hrs by absorbance based analysis; type: subcellular
[35] = test system: Cell membrane; assay: Induction of cell membrane damage in methicillin-resistant Staphylococcus aureus assessed as increase in nucleic acid leakage at 4 times MIC incubated for 2 hrs by absorbance based analysis; type: subcellular
[36] = test system: Enterococcus faecalis; assay: Antimicrobial activity against vancomycin-resistant Enterococcus faecalis ATCC51299 assessed as reduction in bacterial growth in presence of phosphatidylglycerol by checkerboard broth dilution method; type: functional, organism-based
[37] = test system: Enterococcus faecalis; assay: Induction of morphological changes in vancomycin-resistant Enterococcus faecalis ATCC51299 assessed as appearance of died bacterial surface at 4 times MIC measured for 5 hrs by field emission scanning electron microscopy based analysis; type: functional, organism-based

Row | Compound | Activity [1] | Activity [2] | MIC [2] | Activity [3] | Activity [4] | Activity [5] | Activity [6] | MBC [7] | Activity [8] | Activity [9] | Activity [10] | Activity [11] | Activity [12] | Activity [13] | Activity [14] | Activity [15] | Activity [16] | Activity [17] | MIC [18] | Activity [19] | other results
1 | C=CCCCCCCCCCCCc1cc(O)cc(O)c1C(=O)O | Active | Active | 4 µg/mL (≈ 12 µM) | inactive | inactive | Non-Toxic | Active | 4 µg/mL (≈ 12 µM) | Active | Active | Active | inactive | Active | inactive | Active | Active | inactive | Active | 4 µg/mL (≈ 12 µM) | Active | Activity [20]: Active; Activity [21]: Active; Activity [22]: Active; Activity [23]: Active; Activity [24]: Active; Activity [25]: Active; Activity [26]: Dose-Dependent Effect; MBC [27]: 4 µg/mL (≈ 12 µM); Activity [28]: Active; Activity [29]: Active; Activity [30]: Dose-Dependent Effect; Activity [31]: Active; Activity [32]: Active; Activity [33]: Active; Activity [34]: Active; Activity [35]: Active; Activity [36]: Active; Activity [37]: Active
2 | C=CCCCCCCCCCCCc1cc(O)cc(O)c1 | Active | Active | 4 µg/mL (≈ 13.8 µM) | inactive | inactive | Non-Toxic | Active | 4 µg/mL (≈ 13.8 µM) | Active | Active | Active | inactive | Active | inactive | Active | Active | inactive | Active | 4 µg/mL (≈ 13.8 µM) | Active | Activity [20]: Active; Activity [21]: Active; Activity [22]: Active; Activity [23]: Active; Activity [24]: Active; Activity [25]: Active; Activity [26]: Dose-Dependent Effect; MBC [27]: 4 µg/mL (≈ 13.8 µM); Activity [28]: Active; Activity [29]: Active; Activity [30]: Dose-Dependent Effect; Activity [31]: Active; Activity [32]: Active; Activity [33]: Active; Activity [34]: Active; Activity [35]: Active; Activity [36]: Active; Activity [37]: Active
